Tests used:
[1] = Inhibitory concentration against Chorismate mutase; set-up: species or system Bacillus subtilis
[2] = Inhibitory concentration against KDO 8-P synthase
[3] = kinact was determined.
[4] = Binding affinity constant against KDO 8-P synthase

SMILES | IC50 [1] [µM] | IC50 [2] [µM] | K inact [3] | Ki [4] [µM]
O=C(O)CC1(O)CCCCC1 | 350 | > 1000 | – | –
CCCC/N=C(\S)C(O)C(O)C(O)C(O)CO (stereo not given) | – | 400 | 0.01 | 2300
CC1(C(=O)[O-])CCC(C(=O)[O-])C1(C)C.[Na+].[Na+] (stereo not given) | – | > 1000 | – | –
O=C(O)C1C2C=CC(CCC2)C1C(=O)O (stereo not given) | – | > 1000 | – | –
O=C(O)C1C2C=CC(C3CC23)C1C(=O)O (stereo not given) | – | > 1000 | – | –
O=C(O)C1=C(C(=O)O)C2C=CC1[C@@H]1C(C(=O)O)[C@H]21 (stereo not given in full) | – | > 500 | – | –
O=C(O)C12CCC(C(=O)O)(CC1=O)C(=O)C2 | – | > 1000 | – | –
